Reference: ChEMBL document CHEMBL1129052, “2-[(2-Aminobenzyl)sulfinyl]-1-(2-pyridyl)-1,4,5,6-tetrahydrocyclopent[d]imidazoles as a novel class of gastric H+/K+-ATPase inhibitors” (J Med Chem, 1996)

Key:
[1] = molecular target: Potassium-transporting ATPase (Sus scrofa, UniProt P19156); test: In vitro inhibition against H+/K+ ATPase from porcine gastric mucosal membrane vesicles; type: tissue-based, Gastric mucosa
[2] = molecular target: Potassium-transporting ATPase (Rattus norvegicus) (UniProt P09626+P18598); test: Gastric antisecretory activity was tested in rats at 30 mg/kg, po expressed as the percentage of inhibition against the acid output of the control group; type: functional, organism-based; parameters: dose 30 mg/kg
[3] = molecular target: Potassium-transporting ATPase (Sus scrofa, UniProt P18434+P19156); test: Inhibition of H+/K+ ATPase from porcine gastric mucosal membrane vesicles; type: tissue-based, Gastric mucosa
Potassium-transporting ATPase (Sus scrofa, UniProt P18434+P19156), sequence (P18434 whole entry): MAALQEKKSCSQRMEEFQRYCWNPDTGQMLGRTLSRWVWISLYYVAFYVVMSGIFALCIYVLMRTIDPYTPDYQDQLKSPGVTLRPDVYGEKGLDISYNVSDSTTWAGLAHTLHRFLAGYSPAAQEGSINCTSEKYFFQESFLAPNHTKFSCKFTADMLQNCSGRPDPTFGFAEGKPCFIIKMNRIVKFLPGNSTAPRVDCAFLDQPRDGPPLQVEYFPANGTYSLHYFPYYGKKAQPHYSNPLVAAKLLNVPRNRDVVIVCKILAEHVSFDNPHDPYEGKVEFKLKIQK
Potassium-transporting ATPase (Sus scrofa, UniProt P18434+P19156), sequence (P19156 whole entry): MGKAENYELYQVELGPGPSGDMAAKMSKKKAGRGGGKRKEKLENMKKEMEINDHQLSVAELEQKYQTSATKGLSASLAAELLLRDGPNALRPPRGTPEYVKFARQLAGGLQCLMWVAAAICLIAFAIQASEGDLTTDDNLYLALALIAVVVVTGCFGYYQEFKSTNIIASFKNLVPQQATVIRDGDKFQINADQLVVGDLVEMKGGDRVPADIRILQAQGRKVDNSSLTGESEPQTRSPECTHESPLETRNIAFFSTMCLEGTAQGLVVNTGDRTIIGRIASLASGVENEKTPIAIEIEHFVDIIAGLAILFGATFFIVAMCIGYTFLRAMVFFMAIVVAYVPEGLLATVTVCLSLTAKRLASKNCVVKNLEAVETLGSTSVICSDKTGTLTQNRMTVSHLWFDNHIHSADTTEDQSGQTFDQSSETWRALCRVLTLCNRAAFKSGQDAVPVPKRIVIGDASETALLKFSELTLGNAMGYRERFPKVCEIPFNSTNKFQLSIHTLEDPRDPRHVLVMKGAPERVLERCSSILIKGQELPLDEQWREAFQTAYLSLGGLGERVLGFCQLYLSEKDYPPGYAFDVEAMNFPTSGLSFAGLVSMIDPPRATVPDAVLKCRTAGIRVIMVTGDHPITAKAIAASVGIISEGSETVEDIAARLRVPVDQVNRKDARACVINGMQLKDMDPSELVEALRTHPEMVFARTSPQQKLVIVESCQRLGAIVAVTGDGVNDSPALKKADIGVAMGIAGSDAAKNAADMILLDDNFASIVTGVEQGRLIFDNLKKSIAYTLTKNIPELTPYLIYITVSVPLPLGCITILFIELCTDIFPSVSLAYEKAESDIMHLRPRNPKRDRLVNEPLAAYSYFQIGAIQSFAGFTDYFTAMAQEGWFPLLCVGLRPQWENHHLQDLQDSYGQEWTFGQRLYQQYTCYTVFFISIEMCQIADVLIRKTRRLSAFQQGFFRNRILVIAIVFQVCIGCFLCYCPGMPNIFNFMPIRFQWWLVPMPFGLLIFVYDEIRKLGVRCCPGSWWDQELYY

Potassium-transporting ATPase (Sus scrofa, UniProt P19156), sequence (P18434 whole entry): as the sequence (P18434 whole entry) above
Potassium-transporting ATPase (Sus scrofa, UniProt P19156), sequence (P19156 whole entry): as the sequence (P19156 whole entry) above

Row | Compound | IC50 [1] | inhibition [2] | IC50 [3]
1 | Nc1ccccc1C[S+]([O-])c1nccn1-c1ccccn1 (configuration not stated) | 27 µM | 29% | –
2 | CC(=O)Oc1cccnc1-n1ccnc1[S+]([O-])Cc1ccccc1N(C)C (configuration not stated) | 12 µM | 2% | –
3 | COc1cccnc1-n1c([S+]([O-])Cc2ccccc2N(C)C)nc2c1CCC2 (configuration not stated) | 95 µM | 73% | –
4 | [O-][S+](Cc1ccccc1N1CCCCC1)c1nccn1-c1ccccn1 (configuration not stated) | – | 100% | Not Active
5 | [O-][S+](Cc1ccccc1N1CCOCC1)c1nc2c(n1-c1ccccn1)CCC2 (configuration not stated) | – | 80% | Not Active
6 | COc1cccnc1-n1ccnc1[S+]([O-])Cc1ccccc1N (configuration not stated) | 100 µM | 79% | –
7 | CN(C)c1ccccc1C[S+]([O-])c1nccn1-c1ccc(N)cn1 (configuration not stated) | 5.7 µM | 48% | –
8 | CN(C)c1ccccc1C[S+]([O-])c1nccn1-c1ccccc1 (configuration not stated) | 68 µM | 9% | –
9 | COc1cc(C)nc(-n2ccnc2[S+]([O-])Cc2ccccc2N(C)C)c1 (configuration not stated) | 3.4 µM | 59% | –
10 | Cc1cccnc1-n1c([S+]([O-])Cc2ccccc2N(C)C)nc2c1CCC2 (configuration not stated) | > 100 µM | 87% | –
11 | CN(C)c1ccccc1C[S+]([O-])c1nccn1-c1ccc(Cl)cn1 (configuration not stated) | 13 µM | 0% | –
12 | COc1ccc(-n2ccnc2[S+]([O-])Cc2ccccc2N(C)C)nc1 (configuration not stated) | 12 µM | 98% | –
13 | CN(C)c1ccccc1C[S+]([O-])c1nccn1-c1cccnc1 (configuration not stated) | – | 30% | Not Active
14 | CN(C)c1ccccc1C[S+]([O-])c1nccn1-c1ncccc1OCc1ccccc1 (configuration not stated) | 16 µM | 34% | –
15 | CN(C)c1ccccc1C[S+]([O-])c1nc2c(n1Cc1ccccn1)CCC2 (configuration not stated) | 55 µM | 12% | –
16 | CN(C)c1ccccc1C[S+]([O-])c1nccn1-c1ccccn1 (configuration not stated) | 5.5 µM | 76% | –
17 | CN(C)c1ccccc1C[S+]([O-])c1nccn1Cc1ccccn1 (configuration not stated) | 46 µM | 100% | –
18 | CCNc1ccccc1C[S+]([O-])c1nccn1-c1ncccc1OC (configuration not stated) | 7.5 µM | 82% | –
19 | CCN(CC)c1ccccc1C[S+]([O-])c1nc2c(n1-c1ncccc1C)CCC2 (configuration not stated) | – | 53% | Not Active
20 | Cc1cccnc1-n1ccnc1[S+]([O-])Cc1ccccc1N1CCCCC1 (configuration not stated) | – | 82% | Not Active
21 | CN(C)c1ccccc1C[S+]([O-])c1nc(-c2ccccc2)c(-c2ccccc2)[nH]1 (configuration not stated) | – | 0% | Not Active

Row | Compound | IC50 [1] | inhibition [2] | IC50 [3]
22 | CN(C)c1ccccc1C[S+]([O-])c1ncc(-c2ccccc2)n1-c1ccccc1 (configuration not stated) | – | 0% | Not Active
23 | CN(C)c1ccccc1C[S+]([O-])c1nccn1-c1ccc(Br)cn1 (configuration not stated) | – | 0% | –
24 | CN(C)c1ccccc1C[S+]([O-])c1nc2c(n1-c1ccccn1)CCCC2 (configuration not stated) | 59 µM | 12% | –
25 | CCN(CC)c1ccccc1C[S+]([O-])c1nc2c(n1Cc1ccccn1)CCC2 (configuration not stated) | – | 38% | Not Active
26 | CNc1ccccc1C[S+]([O-])c1nc2c(n1-c1ncccc1C)CCC2 (configuration not stated) | 81 µM | 90% | –
27 | CN(C)c1ccccc1C[S+]([O-])c1nccn1-c1nccc2ccccc12 (configuration not stated) | 43 µM | 65% | –
28 | CN(C)c1ccccc1C[S+]([O-])c1nc(-c2ccccc2)cn1Cc1ccccc1 (configuration not stated) | – | 0% | Not Active
29 | CNc1ccccc1C[S+]([O-])c1nccn1-c1ccccn1 (configuration not stated) | 7 µM | 54% | –
30 | Cc1cc(Br)cnc1-n1ccnc1[S+]([O-])Cc1ccccc1N(C)C (configuration not stated) | 50 µM | 46% | –
31 | CN(C)c1ccccc1C[S+]([O-])c1nccn1-c1cc(OCC(F)(F)F)ccn1 (configuration not stated) | 6.8 µM | 11% | –
32 | CNc1ccccc1C[S+]([O-])c1nccn1-c1ncccc1OC (configuration not stated) | 6 µM | 83% | –
33 | CNc1ccccc1C[S+]([O-])c1nccn1-c1ncccc1C (configuration not stated) | 7.5 µM | – | –
34 | [O-][S+](Cc1ccccc1N1CCOCC1)c1nccn1-c1ccccn1 (configuration not stated) | – | 90% | Not Active
35 | Cc1ccc(-n2ccnc2[S+]([O-])Cc2ccccc2N(C)C)nc1 (configuration not stated) | 44 µM | 47% | –
36 | CN(C)c1ccccc1C[S+]([O-])c1nccn1-c1ccc(C(F)(F)F)cn1 (configuration not stated) | 7.4 µM | 36% | –
37 | Cc1cccnc1-n1ccnc1[S+]([O-])Cc1ccccc1N(C)C (configuration not stated) | 33 µM | 100% | –
38 | COc1cccc(-n2ccnc2[S+]([O-])Cc2ccccc2N(C)C)n1 (configuration not stated) | 13 µM | 0% | –
39 | CN(C)c1ccccc1C[S+]([O-])c1ncc[nH]1 (configuration not stated) | 32 µM | 80% | –
40 | CC(=O)Nc1ccccc1C[S+]([O-])c1nc2c(n1-c1ccccn1)CCC2 (configuration not stated) | – | 75% | Not Active
41 | Cc1cccnc1-n1ccnc1[S+]([O-])Cc1ccccc1-n1cccc1 (configuration not stated) | – | 47% | Not Active
42 | CCN(CC)c1ccccc1C[S+]([O-])c1nccn1-c1ncccc1OC (configuration not stated) | – | 94% | Not Active

Row | Compound | IC50 [1] | inhibition [2] | IC50 [3]
43 | CN(C)c1ccccc1C[S+]([O-])c1nccn1-c1cnccn1 (configuration not stated) | – | 30% | Not Active
44 | CN(C)c1ccccc1C[S+]([O-])c1nccn1Cc1ccccc1 (configuration not stated) | 14 µM | 72% | –
45 | COc1cccnc1-n1ccnc1[S+]([O-])Cc1ccccc1N1CCCCC1 (configuration not stated) | – | 62% | Not Active
46 | [O-][S+](Cc1ccccc1-n1cccn1)c1nccn1-c1ccccn1 (configuration not stated) | – | 0% | Not Active
47 | CN(C)c1ccccc1C[S+]([O-])c1nccn1-c1ccncc1 (configuration not stated) | 36 µM | 100% | –
48 | CCN(CC)c1ccccc1C[S+]([O-])c1nc2c(n1-c1cccnc1)CCC2 (configuration not stated) | – | 0% | Not Active
49 | Cc1cccc(-n2ccnc2[S+]([O-])Cc2ccccc2N(C)C)n1 (configuration not stated) | 14 µM | 57% | –
50 | COc1cnc(-n2ccnc2[S+]([O-])Cc2ccccc2N(C)C)cc1OC (configuration not stated) | 12 µM | 13% | –
51 | CN(C)c1ccccc1C[S+]([O-])c1nccn1-c1ccc([N+](=O)[O-])cn1 (configuration not stated) | 60 µM | 0% | –
52 | Cc1cccnc1-n1ccnc1[S+]([O-])Cc1ccccc1N1CCOCC1 (configuration not stated) | – | 100% | Not Active
53 | CCN(CC)c1ccccc1C[S+]([O-])c1nc2c(n1-c1ccccn1)CCC2 (configuration not stated) | 11 µM | 98% | –
54 | CN(C)c1ccccc1C[S+]([O-])c1nccn1-c1ncccn1 (configuration not stated) | – | 30% | Not Active
55 | [O-][S+](Cc1ccccc1-n1cccc1)c1nc2c(n1-c1ccccn1)CCC2 (configuration not stated) | – | 21% | Not Active
56 | COc1cccnc1-n1ccnc1[S+]([O-])Cc1ccccc1N(C)C (configuration not stated) | 33 µM | 100% | –
57 | [O-][S+](Cc1ccccc1-n1ccnc1)c1nccn1-c1ccccn1 (configuration not stated) | – | 22% | Not Active
58 | Cc1ccnc(-n2ccnc2[S+]([O-])Cc2ccccc2N(C)C)c1 (configuration not stated) | 2.5 µM | 79% | –
59 | CC(=O)Nc1ccccc1C[S+]([O-])c1nccn1-c1ccccn1 (configuration not stated) | – | 99% | Not Active
60 | CCN(CC)c1ccccc1C[S+]([O-])c1nccn1-c1ncccc1C (configuration not stated) | 100 µM | 100% | –
61 | COc1cccnc1-n1ccnc1[S+]([O-])Cc1ccccc1-n1cccc1 (configuration not stated) | – | 39% | Not Active
62 | COc1ccnc(-n2ccnc2[S+]([O-])Cc2ccccc2N(C)C)c1 (configuration not stated) | 2.6 µM | 95% | –
63 | CN(C)c1ccccc1C[S+]([O-])c1nccn1C (configuration not stated) | 32 µM | 98% | –

Row | Compound | IC50 [1] | inhibition [2] | IC50 [3]
64 | COc1cccnc1-n1ccnc1[S+]([O-])Cc1ccccc1N1CCOCC1 (configuration not stated) | – | 85% | Not Active
65 | CN(C)c1ccccc1C[S+]([O-])c1ncc(-c2ccccc2)n1Cc1ccccc1 (configuration not stated) | – | 0% | Not Active
66 | CC(=O)Nc1ccc(-n2ccnc2[S+]([O-])Cc2ccccc2N(C)C)nc1 (configuration not stated) | 20 µM | 64% | –
67 | CCNc1ccccc1C[S+]([O-])c1nccn1-c1ncccc1C (configuration not stated) | 18 µM | 100% | –
68 | CN(C)c1ccccc1C[S+]([O-])c1nccn1-c1ccc(C#N)cn1 (configuration not stated) | 35 µM | 0% | –
69 | Cc1cc(C)nc(-n2ccnc2[S+]([O-])Cc2ccccc2N(C)C)c1 (configuration not stated) | 11 µM | 0% | –
70 | CN(C)c1ccccc1C[S+]([O-])c1nccn1-c1ncccc1O (configuration not stated) | 4.8 µM | 1% | –
71 | CN(C)c1ccccc1C[S+]([O-])c1nccn1CCc1ccccn1 (configuration not stated) | 44 µM | 87% | –
72 | CN(C)c1ccccc1C[S+]([O-])c1ncc(-c2ccccc2)n1C (configuration not stated) | – | 0% | Not Active
73 | CCN(CC)c1ccccc1C[S+]([O-])c1nccn1-c1ccccn1 (configuration not stated) | 31 µM | 96% | –
74 | Cc1cccnc1-n1ccnc1[S+]([O-])Cc1ccccc1N (configuration not stated) | 98 µM | 98% | –
75 | [O-][S+](Cc1ccccc1-n1cccc1)c1nccn1-c1ccccn1 (configuration not stated) | – | 88% | Not Active
76 | CN(C)c1ccccc1C[S+]([O-])c1nc2c(n1-c1ccccc1)CCC2 (configuration not stated) | 68 µM | 20% | –
77 | COc1cccnc1-n1ccnc1[S+]([O-])Cc1ccccc1NC(C)=O (configuration not stated) | – | 90% | Not Active
78 | CN(C)c1ccccc1C[S+]([O-])c1nc2c(n1-c1ccccn1)CCC2 (configuration not stated) | 32 µM | 97% | –
79 | CCN(CC)c1ccccc1C[S+]([O-])c1nc2c(n1-c1ccncc1)CCC2 (configuration not stated) | – | 0% | Not Active
80 | CN(C)c1ccccc1C[S+]([O-])c1nc(-c2ccccc2)cn1C (configuration not stated) | – | 0% | Not Active
81 | CN(C)c1ccccc1C[S+]([O-])c1nc2c(n1Cc1ccccc1)CCC2 (configuration not stated) | 28 µM | 42% | –
82 | CC(C)Oc1cccnc1-n1ccnc1[S+]([O-])Cc1ccccc1N(C)C (configuration not stated) | 16 µM | 69% | –
